# Read-outs that look alike come from different tables or passages of the source.
# How the values were obtained:
# Marc-145 cells = assay: CCK-8 cytotoxicity assay in Marc-145 cells; format: cell-based
# Protocol: (§1) The cytotoxicity of MV was assessed using the Cell Counting Kit-8 (CCK-8) assay to determine cell viability. Porcine alveolar macrophages (PAMs) and Marc-145 cells were seeded in 96-well plates and treated with varying concentrations of MV (0, 100, 200, 400 or 800 μM) for 24, 48, 72, and 96 h. Following the manufacturer's protocol, CCK-8 reagent was added to each well, and cells were incubated for 2 h at 37°C under 5% CO2. Absorbance was measured at 450 nm using a microplate reader. Cell viability (%) was calculated using the formula:Cell viability (%) = [OD (sample) – OD (blank)/OD (control) – OD (blank)] × 100%, where OD (blank) represents the background absorbance of cell-free medium, and OD (control) denotes untreated cells.
# (§2) The half-maximal inhibitory concentration (IC50) value for MV-mediated cytotoxicity was calculated through nonlinear regression fitting of dose-response curves.
# PRRSV = assay: Antiviral assay against PRRSV, both strains (HP-PRRSV-GFP and NADC30) taken together; format: cell-based, porcine reproductive and respiratory syndrome virus
# Protocol: (§3) To investigate the stage-specific antiviral effects of mogroside V (MV) and evaluate its ability to inhibit PRRSV replication in Marc-145 and PAM cells, three distinct treatment groups were established for in vitro evaluation: pre-treatment group, post-treatment group, and co-treatment group. Viral replication was assessed through multiple approaches: quantification of viral mRNA copies by RT-qPCR, determination of viral titers using the TCID50 method, and analysis of PRRSV N protein expression via immunofluorescence assay (IFA). The experimental design was as follows:
# (§4) Pre-treatment group: to investigate the preventive effect of MV prior to PRRSV infection, Marc-145 or PAM cells were pretreated with MV before viral challenge. Cells in good growth condition were seeded in 6-well plates and cultured until monolayer formation. After removing the old medium, cells were washed twice with PBS, followed by incubation with varying concentrations of MV for 24 h. The drug was then removed, and cells were washed twice with PBS before infection with PRRSV (100 TCID50) for 48 h. Subsequently, viral mRNA copies, viral titers, and PRRSV N protein fluorescence expression were measured to calculate viral inhibition rates.
# (§5) Post-treatment group: In order to investigate the effect of MV on PRRSV infection, MV was added after Marc-145 or PAM cells were infected with PRRSV. The cells with good growth status were inoculated in the 6-well cell culture plate. After the cells grew to monolayer, the old medium was discarded and the cells were cleaned twice with PBS. PRRSV (100 TCID50) was inoculated and incubated for 1 h, during which the virus could be shaken repeatedly to fully interact with cells. The virus venom was removed, washed twice with PBS, and incubated with different concentrations of MV for 48 h. After that, the viral mRNA copies and viral titer were detected, the viral inhibition rate was calculated, and the fluorescence expression of PRRSV N protein was observed.
# (§6) Co-treatment group: In order to study the direct effect of MV on PRRSV, PRRSV and MV were simultaneously inoculated in Marc-145 or PAM cells for treatment. The cells with good growth status were inoculated in the 6-well cell culture plate. After the cells grew to monolayer, the old medium was discarded and the cells were cleaned twice with PBS. MV at different concentrations was mixed with PRRSV (100 TCID50) and inoculated into Marc-145 and PAM cells for 48 h. After that, the viral mRNA copies and viral titer were detected, viral inhibition rate was calculated, and the fluorescence expression of PRRSV N protein was observed.
# (§7) Real-time quantitative PCR (RT-qPCR) was performed to determine PRRSV gene expression levels. Viral RNA was extracted from cell culture supernatants using a commercial viral DNA/RNA extraction kit according to the manufacturer's protocol, with subsequent storage at −80°C until further analysis. RT-qPCR amplification were conducted using TransScript Green One-Step qRT-PCR SuperMix kit.
# (§8) The supernatant from 6-well culture plates was collected into 1.5 mL microcentrifuge tubes and stored at −80°C for subsequent analysis. Cells were washed twice with PBS and fixed with ice-cold methanol for 15 min at room temperature. Non-specific binding sites were blocked with 1% BSA containing 0.05% Tween 20 for 30 min at ambient temperature. Cells were then incubated with anti-PRRSV N protein monoclonal antibody either for 2 h at 37°C or overnight at 4°C. Following primary antibody incubation, cells were treated with fluorophore-conjugated secondary antibody (goat anti-mouse IgG, Alexa Fluor 488) for 1 h at 37°C. Nuclei were counterstained with DAPI for 10 min at room temperature protected from light. Fluorescence microscopy was performed to examine the subcellular distribution and expression levels of PRRSV N protein. Stained cell monolayers were visualized under 4 × , 10 × , and 20 × objective lenses using an epifluorescence microscope. […]
# HP-PRRSV-GFP = assay: Antiviral assay (TCID50, RT-qPCR, IFA) against HP-PRRSV-GFP strain in Marc-145 and PAM cells; format: cell-based, porcine reproductive and respiratory syndrome virus
# Protocol: as §3, §4, §5, §6, §7, §8
# [1] = system: immunomodulatory cytokines gene expression in PAMs; assay: RT-qPCR of immunoregulatory factor gene expression in PAMs; format: cell-based, porcine
# [2] = system: Porcine alveolar macrophages (PAMs); assay: CCK-8 cytotoxicity assay in PAM cells; format: cell-based
# Protocol: as §1, §2
# NADC30 strain = assay: Antiviral assay (TCID50, RT-qPCR, IFA) against NADC30 strain in Marc-145 and PAM cells; format: cell-based, porcine reproductive and respiratory syndrome virus; settings: for viral titers: co-treatment; for PRRSV N protein expression (IFA): PAMs, pre-treatment
# Protocol: as §3, §4, §5, §6, §7, §8
# [3] = pre-treatment, 400 μM MV, both cell types, vs untreated controls, P < 0.01
# [4] = Marc-145 and PAM cells, 400 μM MV
# [5] = Marc-145 and PAM cells, MV ≤ 200 μM
structure (smiles),measurement,setting,value
"C[C@H](CC[C@@H](O[C@@H]1O[C@H](CO[C@@H]2O[C@H](CO)[C@@H](O)[C@H](O)[C@H]2O)[C@@H](O)[C@H](O)[C@H]1O[C@@H]1O[C@H](CO)[C@@H](O)[C@H](O)[C@H]1O)C(C)(C)O)[C@H]1CC[C@@]2(C)[C@@H]3CC=C4[C@@H](CC[C@H](O[C@@H]5O[C@H](CO[C@@H]6O[C@H](CO)[C@@H](O)[C@H](O)[C@H]6O)[C@@H](O)[C@H](O)[C@H]5O)C4(C)C)[C@]3(C)[C@H](O)C[C@]12C [MV, Mogroside V]",cell viability,"Marc-145 cells; Marc-145 cells, 400 μM MV",exceeded 75%
same,IC50,"Marc-145 cells; Marc-145 cells, 24 h",686 µM
same,IC50,"Marc-145 cells; Marc-145 cells, 48 h",756 µM
same,IC50,"Marc-145 cells; Marc-145 cells, 72 h",756 µM
same,IC50,"Marc-145 cells; Marc-145 cells, 96 h",760 µM
same,maximum safe drug concentration,Marc-145 cells; PAM and Marc-145 cells,400 µM
same,inhibition rate for viral titers,"PRRSV; 200 μM MV, Marc-145 and PAM cells, mean values across all treatment groups",43%
same,maximal inhibition of viral titers,PRRSV; 400 μM MV,up to 100%
same,"greater suppression of viral mRNA, high- vs low-concentration group",PRRSV; 400 μM vs 200 μM MV,51%
same,viral fluorescence intensity (IFA),"PRRSV; Marc-145 cells, pre-treatment, 400 μM MV, P < 0.01",markedly diminished
same,PRRSV N protein expression (IFA),"PRRSV; Marc-145 or PAM cells, 400 μM MV, post-infection and co-treatment regimens",no detectable PRRSV N protein expression
same,viral replication in cells,"PRRSV; co-treatment, 400 μM MV, P < 0.01",markedly suppressed
same,viral titers,"PRRSV; post-treatment (1 h post-infection), 400 μM MV, Marc-145 and PAM cells",undetectable levels
same,viral mRNA copies,"PRRSV; post-treatment (1 h post-infection), 400 μM MV, Marc-145 and PAM cells, P < 0.01",significantly reduced
same,PRRSV mRNA levels,PRRSV; [3],significantly reduced
same,viral titers,PRRSV; [3],significantly reduced
same,"increase in mRNA inhibition, 400 μM vs 200 μM",HP-PRRSV-GFP; Marc-145 and PAM cells,53 percentage-point
same,"increase in viral titer inhibition, 400 μM vs 200 μM",HP-PRRSV-GFP; Marc-145 and PAM cells,52 percentage-point
same,average mRNA inhibition rate,HP-PRRSV-GFP; [4],exceeding 95%
same,average viral titer inhibition rate,HP-PRRSV-GFP; [4],exceeding 95%
same,average mRNA inhibition rate,HP-PRRSV-GFP; [5],below 42%
same,average viral titer inhibition rate,HP-PRRSV-GFP; [5],below 43%
same,viral titers,"HP-PRRSV-GFP; Marc-145 cells, co-treatment, 400 μM MV",below the detection threshold
same,viral titers,"HP-PRRSV-GFP; PAM cells, co-treatment, 400 μM MV",below the detection threshold
same,viral mRNA copies,"HP-PRRSV-GFP; PAMs, pre-treatment, 200 μM MV, P < 0.05",significantly suppressed
same,viral titers,"HP-PRRSV-GFP; PAMs, pre-treatment, 200 μM MV, P > 0.05",no significant reduction
same,"pro-inflammatory cytokine storm, such as excessive TNF-α secretion",[1],no evidence of a pro-inflammatory cytokine storm
same,IL-1 gene expression,[1]; RT-qPCR,significantly upregulates
same,IL-1β gene expression,[1]; RT-qPCR,significantly upregulates
same,IL-2 gene expression,[1]; RT-qPCR,significantly upregulates
same,IL-8 gene expression,[1]; RT-qPCR,significantly upregulates
same,IL-18 gene expression,[1]; RT-qPCR,significantly upregulates
same,cell viability,"[2]; PAM cells, 400 μM MV",exceeded 75%
same,IC50,"[2]; PAM cells, 24 h, read-out: IC50 (cytotoxicity)",577 µM
same,IC50,"[2]; PAM cells, 48 h, read-out: IC50 (cytotoxicity)",599 µM
same,IC50,"[2]; PAM cells, 72 h, read-out: IC50 (cytotoxicity)",704 µM
same,IC50,"[2]; PAM cells, 96 h, read-out: IC50 (cytotoxicity)",582 µM
same,IC50,"[2]; all IC50 values, Marc-145 and PAM cells, 24-96 h, read-out: IC50 values, all",≥ 577 µM
same,"enhancement in mRNA inhibition, 400 μM vs 200 μM",NADC30 strain; Marc-145 and PAM cells,49 percentage-point
same,"improvement in viral titer inhibition, 400 μM vs 200 μM",NADC30 strain; Marc-145 and PAM cells,43 percentage-point
same,average mRNA inhibition rate,NADC30 strain; [4],> 94%
same,average viral titer inhibition rate,NADC30 strain; [4],> 98%
same,average mRNA inhibition rate,NADC30 strain; [5],below 45%
same,average viral titer inhibition rate,NADC30 strain; [5],below 55%
same,viral titers,"NADC30 strain; Marc-145 cells, 400 μM MV",below the detection threshold
same,viral titers,"NADC30 strain; PAM cells, 400 μM MV (CPE in only two replicate wells)",approached the lower detection limit
same,PRRSV N protein expression (IFA),"NADC30 strain; 400 μM MV, P < 0.01",significantly reduced
same,PRRSV N protein expression (IFA),NADC30 strain; 100 and 200 μM MV,no statistically significant effects

# Reference: PMC12263571, “Antiviral effects of mogroside V against porcine reproductive and respiratory syndrome virus in vitro” (Frontiers in Microbiology, 2025)
